For this assay, the target named is T1, TGFβ R1 (Homo sapiens, UniProt P36897).
T1 sequence (P36897 34-503): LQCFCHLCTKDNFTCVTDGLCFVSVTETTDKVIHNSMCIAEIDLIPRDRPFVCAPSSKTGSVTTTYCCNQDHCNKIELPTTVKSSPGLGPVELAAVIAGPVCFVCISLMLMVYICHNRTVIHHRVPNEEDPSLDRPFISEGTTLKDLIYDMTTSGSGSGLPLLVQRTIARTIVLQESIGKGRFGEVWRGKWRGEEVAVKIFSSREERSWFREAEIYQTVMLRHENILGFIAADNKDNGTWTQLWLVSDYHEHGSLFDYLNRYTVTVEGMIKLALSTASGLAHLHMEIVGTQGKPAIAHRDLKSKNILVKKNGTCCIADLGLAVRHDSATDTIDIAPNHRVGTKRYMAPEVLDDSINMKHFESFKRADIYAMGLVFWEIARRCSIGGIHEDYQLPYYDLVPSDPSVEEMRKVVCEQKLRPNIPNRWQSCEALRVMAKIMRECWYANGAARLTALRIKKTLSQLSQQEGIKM
In words: TGFβ R1 autophosphorylation protocol (33P-ATP, phosphocellulose filter plate). Type of assay: biochemical. To be noted: 10 uM ATP, 170 nM TGFβ R1, 20 minutes at room temperature, read-out: IC50 for Kinase Inhibition. As to the method: The compounds of the invention were tested for their ability to inhibit TGFβ by a TGFβ R^1 autophosphorylation protocol. This was conducted as follows: Compound dilutions and reagents were prepared fresh daily. Compounds were diluted from DMSO stock solutions to 2 times the desired assay concentration, keeping final DMSO concentration in the assay less than or equal to 1%. TGFβ R1 was diluted to 4 times the desired assay concentration in buffer+DTT. ATP was diluted into 4× reaction buffer, and gamma-^33P-ATP was added at 60 uCi/mL.
The assay was performed by adding 10 ul of the enzyme to 20 ul of the compound solution. The reaction was initiated by the addition of 10 ul of ATP mix. Final assay conditions included 10 uM ATP, 170 nM TGFβ R1, and […] in 20 mM MOPS, pH7. The reactions were incubated at room temperature for 20 minutes. The reactions were stopped by transferring 23 ul of reaction mixture onto a phosphocellulose 96-well filter plate, which had been pre-wetted with 15 ul of 0.25M H3PO4 per well. After 5 minutes, the wells were washed 4× with 75 mM H3PO4 and once with 95% ethanol. The plate was dried, scintillation cocktail was added to each well, and the wells were counted in a Packard TopCount microplate scintillation counter.
As to `COc1cnc(-c2cc(Cl)ccc2F)nc1Nc1ccncc1C(=O)NCC(C)(C)O` [Compound 58, 4-[2-(5-Chloro-2-fluoro-phenyl)-5-methoxy-pyrimidin-4-ylamino]-N-(2-hydroxy-2-methyl-propyl)-nicotinamide], the half-inhibitory concentration (IC50) is 470 nM. For `COc1cnc(-c2cc(Cl)ccc2F)nc1Nc1ccncc1C(=O)NCC1(O)CCCCC1` [Compound 61, 4-[2-(5-Chloro-2-fluoro-phenyl)-5-methoxy-pyrimidin-4-ylamino]-N-(1-hydroxy-cyclohexylmethyl)-nicotinamide] the value was 11800 nM; for `COc1cnc(-c2cc(Cl)ccc2F)nc1Nc1ccncc1C(=O)N[C@@H]1CCOC1=O` [Compound 62, 4-[2-(5-Chloro-2-fluoro-phenyl)-5-methoxy-pyrimidin-4-ylamino]-N-(2-oxo-tetrahydro-furan-3-yl)-nicotinamide], 360 nM; for `COc1cnc(-c2cc(Cl)ccc2F)nc1Nc1ccncc1C(=O)NCC(O)CN` (stereo not drawn) [Compound 63, N-(3-Amino-2-hydroxy-propyl)-4-[2-(5-chloro-2-fluoro-phenyl)-5-methoxy-pyrimidin-4-ylamino]-nicotinamide], 100 nM. For `COc1cnc(-c2cc(Cl)ccc2F)nc1Nc1ccncc1C(=O)NCCCNC(=O)NC1CCCCC1` [Compound 64, 4-[2-(5-Chloro-2-fluoro-phenyl)-5-methoxy-pyrimidin-4-ylamino]-N-[3-(3-cyclohexyl-ureido)-propyl]-nicotinamide] the value was 890 nM. The same measure for `COc1cnc(-c2cc(Cl)ccc2F)nc1Nc1ccncc1C(=O)NCCCNC(=O)Nc1ccccc1` [Compound 65, 4-[2-(5-Chloro-2-fluoro-phenyl)-5-methoxy-pyrimidin-4-ylamino]-N-[3-(3-phenyl-ureido)-propyl]-nicotinamide]: 590 nM; for `COc1cnc(-c2cc(Cl)ccc2F)nc1Nc1ccncc1C(=O)NCCCNC(=O)NC(C)C` [Compound 66, 4-[2-(5-Chloro-2-fluoro-phenyl)-5-methoxy-pyrimidin-4-ylamino]-N-[3-(3-isopropyl-ureido)-propyl]-nicotinamide]: 270 nM; for `COc1ccc(NC(=O)NCCCNC(=O)c2cnccc2Nc2nc(-c3cc(Cl)ccc3F)ncc2OC)cc1OC` [Compound 67, 4-[2-(5-Chloro-2-fluoro-phenyl)-5-methoxy-pyrimidin-4-ylamino]-N-{3-[3-(3,4-dimethoxy-phenyl)-ureido]-propyl}-nicotinamide]: 440 nM. Turning to `CNC(=O)NCCNC(=O)c1cnccc1Nc1nc(-c2cc(Cl)ccc2F)ncc1OC` [Compound 68, 4-[2-(5-chloro-2-fluoro-phenyl)-5-methoxy-pyrimidin-4-ylamino]-N-[2-(3-methyl-ureido)-ethyl]nicotinamide], the IC50 came to 1540 nM. Consider `CCNC(=O)NCCNC(=O)c1cnccc1Nc1nc(-c2cc(Cl)ccc2F)ncc1OC` [Compound 69, 4-[2-(5-Chloro-2-fluoro-phenyl)-5-methoxy-pyrimidin-4-ylamino]-N-[2-(3-ethyl-ureido)-ethyl]-nicotinamide], for which the IC50 came out at 150 nM.

In the case of `COc1cnc(-c2cc(Cl)ccc2F)nc1Nc1ccncc1C(=O)NCCC(N)=O` [Compound 70, N-(2-Carbamoyl-ethyl)-4-[2-(5-choro-2-fluoro-phenyl)-5-methoxy-pyrimidin-4-ylamino]-nicotinamide], the half-inhibitory concentration (IC50) worked out at 200 nM. As to `COc1cnc(-c2cc(Cl)ccc2F)nc1Nc1ccncc1C(=O)NCCNc1ccccc1` [Compound 71, 4-[2-(5-Chloro-2-fluoro-phenyl)-5-methoxy-pyrimidin-4-ylamino]-N-(2-phenylamino-ethyl)-nicotinamide], the IC50 turned out to be 760 nM. The same measure for `COc1cnc(-c2cc(Cl)ccc2F)nc1Nc1ccncc1C(=O)NCCC#N` [Compound 72, 4-[2-(5-Chloro-2-fluoro-phenyl)-5-methoxy-pyrimidin-4-ylamino]-N-(2-cyano-ethyl)-nicotinamide]: 100 nM; for `COc1cnc(-c2cc(Cl)ccc2F)nc1Nc1ccncc1C(=O)NCC(O)CN1CCOCC1` (stereo not drawn) [Compound 73, 4-[2-(5-Chloro-2-fluoro-phenyl)-5-methoxy-pyrimidin-4-ylamino]-N-(2-hydroxy-3-morpholin-4-yl-propyl)-nicotinamide]: 360 nM. Consider `CNC(=O)NCCCNC(=O)c1cnccc1Nc1nc(-c2cc(Cl)ccc2F)ncc1OC` [Compound 74, 4-[2-(5-Chloro-2-fluoro-phenyl)-5-methoxy-pyrimidin-4-ylamino]-N-[3-(3-methyl-ureido)-propyl]-nicotinamide], for which the IC50 stood at 150 nM. In the case of `CCNC(=O)NCCCNC(=O)c1cnccc1Nc1nc(-c2cc(Cl)ccc2F)ncc1OC` [Compound 75], the IC50 is 110 nM. The same measure for `COc1cnc(-c2cc(Cl)ccc2F)nc1Nc1ccncc1C(=O)NCCCNC(=O)Nc1ccc2c(c1)OCO2` [Compound 76, N-[3-(3-Benzo[1,3]dioxol-5-yl-ureido)-propyl]-4-[2-(5-chloro-2-fluoro-phenyl)-5-methoxy-pyrimidin-4-ylamino]-nicotinamide]: 320 nM.

As for `COc1cnc(-c2cc(Cl)ccc2F)nc1Nc1ccncc1C(=O)NCCCN1CC[C@@H](O)C1` [Compound 77, 4-[2-(5-Chloro-2-fluoro-phenyl)-5-methoxy-pyrimidin-4-ylamino]-N-[3-(3-hydroxy-pyrrolidin-1-yl)-propyl]-nicotinamide], the half-inhibitory concentration (IC50) stood at 40 nM. `NC(=O)c1cnccc1Nc1nc(-c2cc(Cl)ccc2F)ncc1I` [Compound 78, 4-[2-(5-Chloro-2-fluoro-phenyl)-5-iodo-pyrimidin-4-ylamino]-nicotinamide]: the IC50 worked out at 10 nM. In the case of `COc1ccc(NC(=O)NCCNC(=O)c2cnccc2Nc2nc(-c3cc(Cl)ccc3F)ncc2OC)cc1` [Compound 79, 4-[2-(5-Chloro-2-fluoro-phenyl)-5-methoxy-pyrimidin-4-ylamino]-N-{2-[3-(4-methoxy-phenyl)-ureido]-ethyl}-nicotinamide], the 50% inhibitory concentration (IC50) is 350 nM.

Consider `COc1cnc(-c2cc(Cl)ccc2F)nc1Nc1ccncc1C(=O)NCCNC(=O)NC(C)C` [Compound 80, 4-[2-(5-Chloro-2-fluoro-phenyl)-5-methoxy-pyrimidin-4-ylamino]-N-[2-(3-isopropyl-ureido)-ethyl]-nicotinamide], for which the IC50 worked out at 570 nM. The same measure for `COc1cnc(-c2cc(Cl)ccc2F)nc1Nc1ccncc1C(=O)NCCCN1CCCC1C(=O)N(C)C` (stereo not drawn) [Compound 81, 4-[2-(5-Chloro-2-fluoro-phenyl)-5-methoxy-pyrimidin-4-ylamino]-N-[3-(2-dimethylcarbamoyl-pyrrolidin-1-yl)-propyl]-nicotinamide]: 120 nM; for `COc1cnc(-c2cc(Cl)ccc2F)nc1Nc1ccncc1C(=O)NC1CCN(C(=O)OC(C)(C)C)C1` (stereo not drawn) [Compound 82, 3-((4-[2-(5-Chloro-2-fluoro-phenyl)-5-methoxy-pyrimidin-4-ylamino]-pyridine-3-carbonyl)-amino)-pyrrolidine-1-carboxylic acid tert-butyl ester]: 310 nM. For `CC(C)c1cnc(-c2cc(Cl)ccc2F)nc1Nc1ccncc1C(=O)N[C@H]1CCC[C@@H]1O` [Compound 83, 4-[2-(5-Chloro-2-fluoro-phenyl)-5-isopropyl-pyrimidin-4-ylamino)-N-(2-hydroxy-cyclopentyl)-nicotinamide] the value was 230 nM.

By IC50 is commonly meant the concentration needed to halve the response being measured.
